[C(1O2)] = PNA monomer with modified cytosine C(1O2), structure; [A(5)] = PNA monomer with modified adenine A(5), structure; {Fethoc} = Fethoc group on PNA N-terminus; {NH2} = C-terminal amide
Columns and labels:
[1] = test system: AR protein; experiment: AR IHC of tissues of mice subcutaneously administered; type: in vivo, mouse; settings: subcutaneous, dose increased from 0.01 to 0.1 pmole/Kg, 2× per week for 4 weeks, male C57BL/6 mice
From the text: 12 weeks old male C57BL/6 mice were randomly assigned to 3 groups of negative control (no ASO treatment), 0.01 pmole/Kg “ASO 10” and 0.1 pmole/Kg “ASO 10”. (3 animals per group) Mice subcutaneously received either vehicle or ASO dissolved in vehicle (PBS) 2× per week for 4 weeks according to the dosing group. Three days post the final dosing, the animals were anesthetized with zoletil/rompun and subjected to tissue or organ sampling for AR IHC by paraffin blolck.
The AR protein was probed in series with a primary antibody (Cat. No. sc-816, Santa Cruz) at 1:100 dilution, a secondary anti-rabbit IgG (Cat. No. BA-1100, VECTOR) at 1:200 dilution, and Dylight 594-Streptavidin (Cat. No. SA-5594, VECTOR) at 1:200. Nucleus was stained with DAPI. IHC fluorescence images were captured on a Zeiss slide scanner.

[2] = test system: androgen receptor; experiment: AR IHC of skin samples after topical administration in mice; type: in vivo, mouse; settings: topical 1, 5, or 25 fM, skin samples Day 30
From the text: [AR IHC of Skin Sample] Following the shaving in Day 21, the mice received a single topical administration of either vehicle or “ASO 1” according to the group. In Day 24, the skin of the area with hair removal was sampled for immunohistochemistry (IHC) analysis against androgen receptor. The skin samples were cryo-sectioned and subjected to immunostaining in series with a primary anti-AR antibody (Cat. No. sc-816, Santa Cruz) at 1:100 dilution, with a secondary anti-IgG (Cat No. BA-1100, Vector) at 1:200 dilution, and then with Dylight 594-steptavidin (Cat No. SA-5594, Vector, Calif., USA) at 1:200 dilution for red fluoresence tagging. The IHC images were captured on an Olympus fluorescence microscope for changes in the AR expression level upon topical treatment with “ASO 1”.
[AR Immunohistochemistry of Skin Samples] After the hair cut in Day 27, The animals topically received further either vehicle or “ASO 10” at 1, 5, or 25 fM in Days 27 and 29. Skin samples of the back were collected in Day 30 for immunohistochemical analysis against androgen receptor. The skin samples were subjected to immunostaining against androgen receptor as described in “Example 7”. IHC images were captured on a Zeiss slide scanner. FIG. 14B is a representative set of AR IHC images. […] It would be difficult to clearly state that the AR expression in hair follicles decreased in the treatment groups due to the marked increases in the number of hair follicles in the treatment groups.

[3] = test system: human AR pre-mRNA; experiment: AR nested PCR for skipping of AR exon 5 in MCF7 cells; type: cell-based; settings: 3 aM to 3 fM, 3 hours
Procedure: “ASO 5” was evaluated by AR nested PCR for its ability to induce the skipping of AR “exon 5” in MCF7 cells (Cat. Number: HTB-22, ATCC). The employed procedures are detailed as follows.
[Cell Culture & ASO Treatment] MCF7 cells were grown in EMEM medium supplemented with 10% FBS, 1% streptomycin/penicillin, and 0.01 mg/ml bovine insulin under 5% CO2 atmosphere at 37° C. Cells were sub-cultured in 60 mm culture dish prior to treatment with “ASO 5” at 3 aM to 3 fM.
[RNA Extraction] MCF7 cells were incubated with or without “ASO 5” for 3 hours. Total RNA was extracted from cells in 60 mm culture dish using “Universal RNA Extraction Kit” (Cat. No. 9767, Takara) according to the manufacturer's instructions [cDNA Synthesis by One-step PCR]
[Nested PCR Amplification] Throughout the amplification process, was used a unique amplification technique (touch up as increasing annealing temperature per cycle) that worked efficiently and specifically over a temperature range, rather than at one specific annealing temperature (i.e. conventional PCR method). […]
[Identification of Exon Skipping Products] […] The bands of target size were collected and analyzed by Sanger Sequencing. […]

Substance	AR expression in epidermis distal to the injection site, liver, testis and prostate (IHC) [1]	number of hair follicles vs negative control group (IHC images) [2]	AR expression in the muscle layer underneath the dermis (IHC) ([2]; most notable at 5 fM)	exon skipping (AR mRNA splice variants by nested PCR and Sanger sequencing) [3]
Fethoc-C(1O2)TT-A(5)CC-A(5)GG(6)-CA(5)A-NH2 (antisense CTTACCAGGCAA; N-Fethoc, C-terminal amide, chemistry not fully specified) [ASO 10]	markedly decreased	increased markedly	markedly decreased	
Fethoc-C(1O2)TT-A(5)CC-A(5)GG-C(1O2)AA(5)-G-NH2 (antisense CTTACCAGGCAAG; all peptide nucleic acid (PNA), [C(1O2)] at 1, 10, [A(5)] at 4, 7, 12, 5' {Fethoc}, 3' {NH2}; peptide nucleic acid, written N to C terminus) [ASO 5]				induce the skipping of “exon 5”, “exons 4-5”, and “exons 4-6”
